Experiment: Comparative hygroscopicity testing (water content by Karl Fischer analysis)
Type: physicochemical
Conditions: for Water content of sample after testing: after 24 hours at 25° C. in desiccator containing saturated ammonium sulphate solution, 1 g sample in unstoppered vessel, KF analysis; for Increase in water content: after vs before 24 hours at 25° C. over saturated ammonium sulphate solution; for Water content of sample before testing: before hygroscopicity testing, Karl Fischer (KF) analysis
Procedure: The hygroscopicity of form APO-III as reported in WO 2014/059518 A1 was compared with the hygroscopicity of the form APO-VII of the present invention.
The hygroscopicity testing was conducted by placing 1 g of each sample in an unstoppered weighing vessel in a desiccator containing a saturated ammonium sulphate solution. The desiccator was placed in an oven at 25° C. for 24 hours. The water content was measured before and after the testing by Karl Fischer (KF) analysis.

For Cc1cn(-c2cc(NC(=O)c3ccc(C)c(Nc4nccc(-c5cccnc5)n4)c3)cc(C(F)(F)F)c2)cn1.Cl [Form APO-VII], the “Water content of sample after testing” value was 0.4757 % w/w, the “Increase in water content” value was 0.1812 and the “Water content of sample before testing” value was 0.2945 % w/w.
With Cc1cn(-c2cc(NC(=O)c3ccc(C)c(Nc4nccc(-c5cccnc5)n4)c3)cc(C(F)(F)F)c2)cn1.Cl [Form APO-III] the “Water content of sample after testing” value was 3.5671 % w/w, the “Increase in water content” value was 3.2795 and the “Water content of sample before testing” value was 0.2876 % w/w.
